Measurements as given in PubChem BioAssay (NCI).
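Results reflect a 48-hour exposure of cells in 96-well plates to compound at five concentrations. TGI is the concentration that stops growth completely.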

Columns and labels:
Assay in all cases: inhibition of tumour cell growth, NCI panel, 48 h
T-47D breast = system: T-47D breast
HCC-2998 colon = system: HCC-2998 colon
A549 NSCLC = system: A549 NSCLC
SNB-75 CNS = system: SNB-75 CNS
COLO 205 colon = system: COLO 205 colon
786-0 renal = system: 786-0 renal
SK-MEL-28 melanoma = system: SK-MEL-28 melanoma
SF-295 CNS = system: SF-295 CNS
NCI-H226 lung = system: NCI-H226 lung
PC-3 prostate = system: PC-3 prostate
OVCAR-8 ovarian = system: OVCAR-8 ovarian
K-562 leukemia = system: K-562 leukemia
ACHN renal = system: ACHN renal
DU-145 prostate = system: DU-145 prostate
MDA-MB-231 breast = system: MDA-MB-231 breast
NCI/ADR-RES ovarian = system: NCI/ADR-RES ovarian
SN12C renal = system: SN12C renal
CAKI-1 renal = system: CAKI-1 renal
OVCAR-5 ovarian = system: OVCAR-5 ovarian
HOP-62 NSCLC = system: HOP-62 NSCLC

SMILES | TGI (T-47D breast) [µM] | TGI (HCC-2998 colon) [µM] | TGI (A549 NSCLC) [µM] | TGI (SNB-75 CNS) [µM] | TGI (COLO 205 colon) [µM] | TGI (786-0 renal) [µM] | TGI (SK-MEL-28 melanoma) [µM] | TGI (SF-295 CNS) [µM] | TGI (NCI-H226 lung) [µM] | TGI (PC-3 prostate) [µM] | TGI (OVCAR-8 ovarian) [µM] | TGI (K-562 leukemia) [µM] | TGI (ACHN renal) [µM] | TGI (DU-145 prostate) [µM] | TGI (MDA-MB-231 breast) [µM] | TGI (NCI/ADR-RES ovarian) [µM] | TGI (SN12C renal) [µM] | TGI (CAKI-1 renal) [µM] | TGI (OVCAR-5 ovarian) [µM] | TGI (HOP-62 NSCLC) [µM]
Cc1ccc2c(=O)cc(-c3cc4ccccc4s3)[nH]c2n1 | 48 | > 100 | > 100 | 67.6 | > 100 | > 100 | > 100 | > 100 | 98.6 | > 100 | > 100 | > 100 | > 100 | > 100 | > 100 | > 100 | > 100 | > 100 | > 100 | > 100
Cc1nnc(N2C(=O)C(=Cc3ccc(Cl)cc3)N=C2c2ccc(Cl)cc2)nc1/C=C\c1ccc(N(C)C)cc1 | > 100 | > 100 | > 100 | > 100 | > 100 | > 100 | > 100 | > 100 | > 100 | > 100 | > 100 | > 100 | > 100 | > 100 | > 100 | > 100 | > 100 | > 100 | > 100 | > 100
Cc1cccc(-c2cccc(COCc3cccc(-c4cccc(CO)n4)n3)n2)n1 | > 50 | > 50 | > 50 | > 50 | > 50 | > 50 | > 50 | > 5 | > 50 | > 50 | > 50 | > 50 | > 50 | > 50 | > 50 | > 50 | > 50 | > 50 | > 50 | > 50
CSc1ccc(/C=C/C(=O)c2nc3ccccc3[nH]2)cc1 | 29.7 | 23.7 | 98.6 | 43.8 | 96 | 43.6 | > 100 | > 100 | 56.9 | 68.6 | > 100 | > 100 | 43.2 | 13.2 | 24.3 | 64.1 | > 100 | 6.19 | 88.2 | 82.1
Cc1cccc(C)c1NC(=O)C(=O)C(c1ccccc1Cl)S(=O)(=O)Cc1ccccc1Cl (stereo not given) | > 100 | > 100 | > 100 | > 44.1 | > 100 | > 71.7 | > 100 | > 75.2 | > 100 | > 100 | > 69.6 | > 100 | > 100 | > 100 | > 73.4 | > 100 | > 100 | > 100 | > 100 | 45.4
CSC1=NC(=O)CCN1C1OCC(OC(C)=O)C(OC(C)=O)C1OC(C)=O (stereo not given) | > 31.6 | > 31.6 | > 31.6 | 22.7 | > 31.6 | > 31.6 | 25.4 | > 31.6 | > 31.6 | > 31.6 | > 31.6 | > 31.6 | > 31.6 | > 31.6 | 22.4 | > 31.6 | > 31.6 | > 31.6 | > 31.6 | > 31.6
N=C1/C(=C/c2ccco2)C(=O)N=C2SC=NN12 | > 100 | > 100 | > 100 | > 100 | > 100 | > 100 | > 100 | > 100 | > 100 | > 100 | > 100 | > 100 | > 100 | > 100 | > 100 | > 100 | > 100 | > 100 | > 100 | > 100
O=C(O)COc1cc(-c2ccccc2F)nc2cc3c(cc12)OCO3 | > 100 | > 100 | > 100 | > 100 | > 100 | > 100 | > 100 | > 100 | > 100 | > 100 | > 100 | > 100 | > 100 | > 100 | > 100 | > 100 | > 100 | > 100 | > 100 | > 100
O=c1[nH]c(=S)n(-c2cccc3ccccc23)c(O)c1/C=C1\C=Nc2ccccc21 | 19.3 | 3.5 | 20.6 | 6.42 | 3.4 | 3.55 | 6.06 | 10.3 | 5.8 | 6.74 | 6.86 | 7.11 | 5.73 | 3.55 | 5.14 | 10.5 | 5.29 | 8.65 | 5.47 | 10.7
CCCCC1CCCCCCc2[nH]c(/C=C3\N=C(c4ccc[nH]4)C=C3OC)cc21 (stereo not given) | 2.06 | 1.02 | 0.0354 | 0.638 | 1.39 | 0.101 | 0.492 | 1.17 | 3.27 | 2.09 | 1.33 | 1.28 | 1.12 | 3.96 | 1.76 | 0.806 | 1.32 | 4.32 | 2 | 0.94
CSC1=C(C(=O)N(COCC[Si](C)(C)C)c2ccccc2Br)CCC(C(C)(C)C)C1 (stereo not given) | 34.3 | 27 | > 100 | > 100 | 25.7 | 26.2 | > 100 | 25.6 | 34.4 | > 100 | > 100 | 29.1 | 51.2 | > 100 | 30.5 | > 100 | 27.8 | 18.1 | 28.7 | 53.2
CC(=O)N(CN1C(=O)CCC1C(=O)O)c1ccc(C)cc1 (stereo not given) | > 100 | > 100 | > 100 | > 100 | > 100 | > 100 | > 100 | > 100 | > 100 | > 100 | > 100 | > 100 | > 100 | > 100 | > 100 | > 100 | > 100 | > 100 | > 100 | > 100
